Reference: PubChem BioAssay (NCI)
“And” between values parts separate entries of the source, which are not always exact repeats. Identical values can stand only once.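 48-hour exposure; five concentrations; linearly interpolated endpoints. GI50 is the concentration that inhibits growth by half. TGI: total growth inhibition.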

Experiments:
Assay in all cases: growth of human tumour cells (NCI), 48 h
OVCAR-8 ovarian = system: OVCAR-8 ovarian
UO-31 renal = system: UO-31 renal
NCI/ADR-RES ovarian = system: NCI/ADR-RES ovarian
OVCAR-5 ovarian = system: OVCAR-5 ovarian
OVCAR-4 ovarian = system: OVCAR-4 ovarian
UACC-62 melanoma = system: UACC-62 melanoma
786-0 renal = system: 786-0 renal
TK-10 renal = system: TK-10 renal
UACC-257 melanoma = system: UACC-257 melanoma
COLO 205 colon = system: COLO 205 colon

| Compound | GI50 (OVCAR-8 ovarian) [µM] | TGI (OVCAR-8 ovarian) | GI50 (UO-31 renal) [µM] | TGI (UO-31 renal) | GI50 (NCI/ADR-RES ovarian) [µM] | TGI (NCI/ADR-RES ovarian) | GI50 (OVCAR-5 ovarian) [µM] | TGI (OVCAR-5 ovarian) | GI50 (OVCAR-4 ovarian) [µM] | TGI (OVCAR-4 ovarian) | GI50 (UACC-62 melanoma) [µM] | TGI (UACC-62 melanoma) | GI50 (786-0 renal) [µM] | TGI (786-0 renal) | GI50 (TK-10 renal) [µM] | TGI (TK-10 renal) | GI50 (UACC-257 melanoma) [µM] | TGI (UACC-257 melanoma) | GI50 (COLO 205 colon) [µM] | TGI (COLO 205 colon) |
| --- | --- | --- | --- | --- | --- | --- | --- | --- | --- | --- | --- | --- | --- | --- | --- | --- | --- | --- | --- | --- |
| CN1CCN(Cc2ccc(NC(=O)c3cncc(C#Cc4ncc5ccccn45)c3)cc2C(F)(F)F)CC1 | 2.21 | 5.42 µM | 1.25 | 3.72 µM | 2.77 | 16 µM | 1.76 | 8.41 µM | 0.531 | 4.57 µM | 3.04 | 6.76 µM | 3 | 6.4 µM | 3.43 | 8.21 µM | 1.44 | 4.57 µM | 0.561 | 1.39 µM |
| C[C@H](CCCOS(C)(=O)=O)[C@H]1CC[C@H]2[C@@H]3CC[C@@H]4C[C@H](OS(C)(=O)=O)CC[C@]4(C)[C@H]3CC[C@]12C | 582 |  | > 2500 | > 2500 µM | 10.5 |  | 391 | > 2500 µM | 1850 | > 2500 µM | 710 |  | 523 |  | 607 |  | 816 | > 2500 µM | 1130 | > 2500 µM |
| CC(=O)N1c2ccc(-c3ccc(C(=O)O)cc3)cc2[C@H](Nc2ccc(Cl)cc2)C[C@@H]1C | 2.52 | 63.5 µM | < 0.0251 | 13 µM | 0.551 | > 100 µM | 1.45 | > 46.6 µM | 0.686 | > 100 µM | 0.0261 | 11.5 µM | 0.125 | 40.2 µM | 0.0569 | 17.9 µM | 0.366 | 21.5 µM | 0.0615 | 12.8 µM |
| COc1ccc(-c2cc3c(N)ncnc3o2)cc1 | > 25 | > 25 µM | 12.4 | > 25 µM | > 25 | > 25 µM | > 25 | > 25 µM | > 25 | > 25 µM | 5.72 | > 25 µM | > 25 | > 25 µM | 9.44 | > 25 µM | > 25 | > 25 µM | > 25 | > 25 µM |
| Nc1cc(N)c2nc(-c3ccccc3)c(Oc3ccc(Cl)c(Cl)c3)nc2c1 | 27.9 | 88.4 µM | 13.3 | 60.7 µM | 11.8 | 36.1 µM | 25.4 | 58.3 µM | 33 | > 100 µM | 16.3 | 48.2 µM | 19.4 | 41.2 µM | 17.6 | 38 µM | 28.5 | 87.2 µM | 20.6 | 67.8 µM |
| CCC(=O)OCN1C(=O)C=CC1=O |  | 35 µM and 37 µM | 17.5 | 31.7 µM and 20.7 µM |  | 56.2 µM and 63.5 µM |  | 32.9 µM and 33.1 µM | 21.2 | 39.5 µM and 34.5 µM |  | 31.8 µM and 30.7 µM | 21.7 | 41.4 µM and 11.3 µM | 15.6 | 29.3 µM and 18.4 µM | 15.7 | 29.4 µM and 22.2 µM | 1.84 | 3.56 µM and 11.3 µM |
| CC(C)Cn1cnc2c(SCc3ccccn3)nc(N)nc21 |  | > 100 µM |  | > 100 µM |  | > 100 µM |  | > 100 µM |  | > 100 µM |  | > 100 µM |  | > 100 µM |  | > 100 µM |  | > 100 µM |  | > 100 µM |
